For orientation: IC50 means the point on the concentration scale where inhibition reaches its midpoint.

In the first test the target is His-tagged recombinant human Gal-3 (hGal-3) (Homo sapiens (Human), UniProt P17931). Briefly: Gal-3 HTRF assay (His-tagged hGal-3 binding to B-ASF).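 Also: compounds preincubated 30 min with hGal-3, then 1 h with B-ASF, detection via terbium anti-His antibody and streptavidin d2. Control with B-ASF counts as full signal, omitting B-ASF as background.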 The conditions noted are these: HTRF, hGal-3 15 nM, B-ASF 15 nM; read-out: hGal-3 IC50. On the technique in general: Time-resolved FRET reads energy transfer from a long-lived donor to a nearby acceptor.
Sequence of His-tagged recombinant human Gal-3 (hGal-3) (P17931 whole entry): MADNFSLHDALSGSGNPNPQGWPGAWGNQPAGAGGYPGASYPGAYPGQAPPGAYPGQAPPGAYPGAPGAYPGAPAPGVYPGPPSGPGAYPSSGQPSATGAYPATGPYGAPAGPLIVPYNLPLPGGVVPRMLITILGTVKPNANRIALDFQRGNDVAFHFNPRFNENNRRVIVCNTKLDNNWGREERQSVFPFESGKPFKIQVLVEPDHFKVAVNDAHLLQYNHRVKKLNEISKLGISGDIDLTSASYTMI
Take `OC[C@H]1O[C@@H](c2nncn2-c2cccc(OC(F)(F)F)c2)[C@H](O)[C@@H](n2cc(-c3cc(F)c(F)c(F)c3)nn2)[C@H]1O` [Example 93]: the IC50 was 190 nM.

Regarding `Cc1nc2c(Cl)cc(-n3cnnc3[C@@H]3O[C@H](CO)[C@H](O)[C@H](n4cc(-c5cc(F)c(F)c(F)c5)nn4)[C@H]3O)cc2s1` [Example 148], the IC50 was 80 nM.

On to `CO[C@@H]1[C@@H](n2cc(-c3cc(F)c(F)c(F)c3)nn2)[C@@H](O)[C@@H](CO)O[C@H]1c1ncnn1-c1cccc(Cl)c1` [Example 189], for which the IC50 came to 90 nM.

As for `COc1cccc(-c2cnnn2[C@H]2C[C@@H](n3cc(-c4cc(F)c(F)c(F)c4)nn3)[C@@H](O)[C@@H](CO)O2)c1` [Example 16], the IC50 worked out at 609 nM.

Consider `COc1ccc(Cl)cc1-n1ncnc1[C@H]1C[C@@H](n2cc(-c3cc(F)c(F)c(F)c3)nn2)[C@@H](O)[C@@H](CO)O1` [Example 180], for which the IC50 was determined as 210 nM.

Turning to `Cc1ccc(-n2ncnc2[C@@H]2O[C@H](CO)[C@H](O)[C@H](n3cc(-c4cc(F)c(F)c(F)c4)nn3)[C@H]2O)cc1` [Example 39], the IC50 was 550 nM.

For the compound `OCCn1cnnc1[C@@H]1O[C@H](CO)[C@H](O)[C@H](n2cc(-c3cc(F)c(F)c(F)c3)nn2)[C@H]1O` [Example 170, (2S,3R,4R,5R,6R)-2-(4-(2-hydroxyethyl)-4H-1,2,4-triazol-3-yl)-6-(hydroxymethyl)-4-(4-(3,4,5-trifluorophenyl)-1H-1,2,3-triazol-1-yl)tetrahydro-2H-pyran-3,5-diol], the IC50 was 2000 nM.

In the case of `Cc1nnc([C@@H]2O[C@H](CO)[C@H](O)[C@H](n3cc(-c4ccc(Br)c(F)c4)nn3)[C@H]2OCC(F)F)n1-c1cc(Cl)ccc1C(F)(F)F` [Example 325, (2R,3R,4S,5R,6S)-4-(4-(4-bromo-3-fluorophenyl)-1H-1,2,3-triazol-1-yl)-6-(4-(5-chloro-2-(trifluoromethyl)phenyl)-5-methyl-4H-1,2,4-triazol-3-yl)-5-(2,2-difluoroethoxy)-2-(hydroxymethyl)tetrahydro-2H-pyran-3-ol], the IC50 worked out at 20 nM.

As for `OC[C@H]1O[C@@H](c2nncn2-c2ccccc2F)[C@H](O)[C@@H](n2cc(-c3cc(F)c(F)c(F)c3)nn2)[C@H]1O` [Example 97], the IC50 is 350 nM.

In the case of `Cc1nc2ccc(-n3ncnc3[C@@H]3O[C@H](CO)[C@H](O)[C@H](n4cc(C(=O)NCc5cccc(F)c5)nn4)[C@H]3O)cc2s1` [Example 200], the IC50 amounted to 860 nM.

For the compound `OC[C@H]1O[C@@H](c2nncn2-c2cc(Cl)cc(C(F)(F)F)c2)[C@H](O)[C@@H](n2cc(-c3cc(F)c(F)c(F)c3)nn2)[C@H]1O` [Example 118], the IC50 amounted to 160 nM.

For `OC[C@H]1O[C@@H](c2ncnn2-c2ccc(C(F)(F)F)cc2)[C@H](O)[C@@H](n2cc(-c3cc(F)c(F)c(F)c3)nn2)[C@H]1O` [Example 25], the IC50 amounted to 560 nM.

Regarding `O=C(O)c1nnn([C@@H]2O[C@H](CO)[C@H](O)[C@H](n3cc(-c4cc(F)c(F)c(F)c4)nn3)[C@H]2O)c1-c1ccc(Cl)c(Cl)c1` [Example 11], the IC50 turned out to be 184 nM.

On to `OC[C@H]1O[C@@H](c2nncn2-c2ccc3ncsc3c2)[C@H](O)[C@@H](n2cc(-c3cc(F)c(F)c(F)c3)nn2)[C@H]1O` [Example 120], for which the IC50 amounted to 30 nM.

For the compound `OC[C@H]1O[C@@H](c2nncn2-c2ccc3c(c2)OCCO3)[C@H](O)[C@@H](n2cc(-c3cc(F)c(F)c(F)c3)nn2)[C@H]1O` [Example 96], the IC50 stood at 290 nM.

Take `CO[C@@H]1[C@@H](n2cc(-c3cc(F)c(F)c(F)c3)nn2)[C@@H](O)[C@@H](CO)O[C@H]1c1ncnn1-c1ccc(Cl)c(Cl)c1` [Example 190]: the IC50 was determined as 180 nM.

As for `Cc1nc([C@H]2C[C@@H](n3cc(-c4cc(F)c(F)c(F)c4)nn3)[C@@H](O)[C@@H](CO)O2)n(-c2cc(Cl)ccc2F)n1` [Example 185], the IC50 amounted to 170 nM.

For `OC[C@H]1O[C@@H](c2nncn2-c2cc(Cl)cc3cccnc23)[C@H](OCC(F)F)[C@@H](n2cc(-c3ccc(Br)c(F)c3)nn2)[C@H]1O` [Example 323, (2R,3R,4S,5R,6S)-4-(4-(4-bromo-3-fluorophenyl)-1H-1,2,3-triazol-1-yl)-6-(4-(6-chloroquinolin-8-yl)-4H-1,2,4-triazol-3-yl)-5-(2,2-difluoroethoxy)-2-(hydroxymethyl)tetrahydro-2H-pyran-3-ol], the IC50 was 130 nM.

Take `CNS(=O)(=O)Cc1ccc(-n2cnnc2[C@@H]2O[C@H](CO)[C@H](O)[C@H](n3cc(-c4cc(F)c(F)c(F)c4)nn3)[C@H]2O)cc1` [Example 114]: the IC50 was determined as 260 nM.

Turning to `Cn1ncnc1[C@@H]1O[C@H](CO)[C@H](O)[C@H](n2cc(-c3cc(F)c(F)c(F)c3)nn2)[C@H]1O` [Example 44], the IC50 amounted to 4460 nM.

As for `Cc1nc2ccc(-n3nc(C(F)(F)F)nc3[C@@H]3O[C@H](CO)[C@H](O)[C@H](n4cc(-c5cc(F)c(F)c(F)c5)nn4)[C@H]3O)cc2s1` [Example A4, (2R,3R,4R,5R,6S)-2-(Hydroxymethyl)-6-(1-(2-methylbenzo[d]thiazol-6-yl)-3-(trifluoromethyl)-1H-1,2,4-triazol-5-yl)-4-(4-(3,4,5-trifluorophenyl)-1H-1,2,3-triazol-1-yl)tetrahydro-2H-pyran-3,5-diol], the IC50 stood at 58 nM.

For `Cc1nc2ccc(-n3ncnc3[C@@H]3O[C@H](CO)[C@H](O)[C@H](n4cc(C(=O)NC5CCCCC5)nn4)[C@H]3O)cc2s1` [Example 198], the IC50 stood at 1020 nM.

In the case of `CC(C)Oc1cccc(-n2cnnc2[C@@H]2O[C@H](CO)[C@H](O)[C@H](n3cc(-c4cc(F)c(F)c(F)c4)nn3)[C@H]2O)c1` [Example 105], the IC50 is 330 nM.

On to `COc1cccc(-n2cnnc2[C@@H]2O[C@H](CO)[C@H](O)[C@H](n3cc(-c4cc(F)c(F)c(F)c4)nn3)[C@H]2O)c1` [Example 152], for which the IC50 turned out to be 160 nM.

For the compound `Cc1nc2ccc(-n3ncnc3[C@@H]3O[C@H](CO)[C@H](O)[C@H](n4cc(C(=O)NC5CCC5)nn4)[C@H]3O)cc2s1` [Example 199], the IC50 came to 360 nM.

On to `OC[C@H]1O[C@@H](n2nncc2-c2ccc3c(c2)OCO3)[C@H](O)[C@@H](n2cc(-c3cc(F)c(F)c(F)c3)nn2)[C@H]1O` [Example 4], for which the IC50 came to 386 nM.

For `Cc1nc([C@@H]2O[C@H](CO)[C@H](O)[C@H](n3cc(-c4cccc(F)c4)nn3)[C@H]2O)oc1CO` [Example 300, (2R,3R,4S,5R,6R)-4-(4-(3-fluorophenyl)-1H-1,2,3-triazol-1-yl)-2-(hydroxymethyl)-6-(5-(hydroxymethyl)-4-methyloxazol-2-yl)tetrahydro-2H-pyran-3,5-diol], the IC50 turned out to be 9430 nM.

With `O=C(O)c1cccc(-n2ncnc2[C@@H]2O[C@H](CO)[C@H](O)[C@H](n3cc(-c4cc(F)c(F)c(F)c4)nn3)[C@H]2O)c1` [Example 31], the IC50 turned out to be 1040 nM.

The same test, now with this note: read-out: hGal3 IC50.
For `CC(=O)Nc1cc(-c2cn([C@H]3[C@@H](O)[C@@H](CO)O[C@@H](c4ncnn4-c4ccc5nc(C)sc5c4)[C@@H]3O)nn2)cc(F)c1F` [Example 219], the IC50 turned out to be 70 nM.

`COc1cc(F)c(F)cc1-c1cn([C@H]2[C@@H](O)[C@@H](CO)O[C@@H](c3ncnn3-c3ccc4nc(C)sc4c3)[C@@H]2O)nn1` [Example 233]: the IC50 was found to be 240 nM.

For `Cc1nc2ccc(-n3c([C@@H]4O[C@H](CO)[C@H](O)[C@H](n5cc(-c6cc(F)c(Br)c(F)c6)nn5)[C@H]4O)nnc3C(F)(F)F)cc2s1` [Example 314], the IC50 was found to be 57 nM.

Take `CCOC(=O)Nc1cc(-c2cn([C@H]3[C@@H](O)[C@@H](CO)O[C@@H](c4ncnn4-c4ccc5nc(C)sc5c4)[C@@H]3O)nn2)cc(F)c1F` [Example 220]: the IC50 came out at 70 nM.

For `Cc1nnc([C@@H]2O[C@H](CO)[C@H](O)[C@H](n3cc(-c4cc(F)c(Cl)c(F)c4)nn3)[C@H]2O)n1-c1cc(Cl)cc2cccnc12` [Example 319], the IC50 was determined as 14 nM.

Consider `Cc1nc2ccc(-n3c(C)nnc3[C@@H]3O[C@H](CO)[C@H](O)[C@H](n4cc(-c5cc(F)c(Cl)c(F)c5)nn4)[C@H]3O)cc2s1` [Example 306], for which the IC50 turned out to be 35 nM.

With `Cc1nc2ccc(-n3ncnc3[C@@H]3O[C@H](CO)[C@H](O)[C@H](n4cc(-c5ccc(OC(F)(F)F)c(F)c5)nn4)[C@H]3O)cc2s1` [Example 229], the IC50 came to 980 nM.

On to `Cc1nc2ccc(-n3ncnc3[C@@H]3O[C@H](CO)[C@H](O)[C@H](n4cc(-c5ccc(CC#N)c(F)c5)nn4)[C@H]3O)cc2s1` [Example 231], for which the IC50 is 390 nM.

With `Cc1nc([C@H]2C[C@@H](n3cc(-c4cc(F)c(Cl)c(F)c4)nn3)[C@@H](O)[C@@H](CO)O2)n(-c2cc(Cl)ccc2C)n1` [Example 263], the IC50 came to 120 nM.

`Cc1nc([C@H]2C[C@@H](n3cc(-c4cc(F)c(Cl)c(F)c4)nn3)[C@@H](O)[C@@H](CO)O2)n(-c2cc(Cl)ccc2Cl)n1` [Example 262]: the IC50 came to 100 nM.

The same test, now with this note: read-out: hGal IC50.
As to `Cc1nc([C@@H]2O[C@H](CO)[C@H](O)[C@H](n3cc(-c4ccc(Cl)c(F)c4)nn3)[C@H]2O)n(-c2cc(Cl)ccc2OC(F)(F)F)n1` [Example A20], the IC50 is 31 nM.

As to `Cc1nc([C@@H]2O[C@H](CO)[C@H](O)[C@H](n3cc(-c4cc(F)c(Cl)c(F)c4)nn3)[C@H]2O)n(-c2cc(Cl)cc3ncccc23)n1` [Example A16], the IC50 stood at 51 nM.

Turning to `Cc1nc([C@@H]2O[C@H](CO)[C@H](O)[C@H](n3cc(-c4cc(F)c(Br)c(F)c4)nn3)[C@H]2O)n(-c2cc3sc(C)nc3cc2C(F)(F)F)n1` [Example A33], the IC50 was determined as 103 nM.

Regarding `Cc1nc([C@@H]2O[C@H](CO)[C@H](O)[C@H](n3cc(-c4cc(F)c(Cl)c(F)c4)nn3)[C@H]2O)n(-c2cc(Cl)c(F)cc2Cl)n1` [Example A46], the IC50 was 33 nM.

For `Cc1nc([C@@H]2O[C@H](CO)[C@H](O)[C@H](n3cc(-c4cc(F)c(Cl)c(F)c4)nn3)[C@H]2O)n(-c2cc(CC(F)(F)F)ccc2Cl)n1` [Example A40], the IC50 is 126 nM.

Take `Cc1nc([C@@H]2O[C@H](CO)[C@H](O)[C@H](n3cc(-c4cc(F)c(Cl)c(F)c4)nn3)[C@H]2O)n(-c2cc3sc(C)nc3cc2C(F)(F)F)n1` [Example A30]: the IC50 turned out to be 17 nM.

These data come from patent US11267811B2, “Small molecule inhibitors of galectin-3” (BRISTOL-MYERS SQUIBB COMPANY, priority 2017, dated 2022).
